Active and inactive are the calls of the source. The calls are words filed in the database; no cut-off is given here.
Key:
HT-29 [1] = test: Cytotoxicity against human HT-29 cells assessed as cell growth inhibition at 50 uM after 24 hrs by MTT assay; type: functional, cell-based
RKO = test: Cytotoxicity against human RKO cells assessed as cell growth inhibition at 50 uM after 24 to 72 hrs by MTT assay; type: functional, cell-based; conditions: time 24-72 hrs
[2] = molecular target: T1, P2X purinoceptor 7 (Homo sapiens) (UniProt Q99572); test: Antagonist activity at human P2X7R expressed in human HT-29 cells assessed as reduction in ethidium bromide uptake at 100 uM in presence of BzATP; type: cell-based; conditions: filed as antagonist
T1 sequence (whole entry): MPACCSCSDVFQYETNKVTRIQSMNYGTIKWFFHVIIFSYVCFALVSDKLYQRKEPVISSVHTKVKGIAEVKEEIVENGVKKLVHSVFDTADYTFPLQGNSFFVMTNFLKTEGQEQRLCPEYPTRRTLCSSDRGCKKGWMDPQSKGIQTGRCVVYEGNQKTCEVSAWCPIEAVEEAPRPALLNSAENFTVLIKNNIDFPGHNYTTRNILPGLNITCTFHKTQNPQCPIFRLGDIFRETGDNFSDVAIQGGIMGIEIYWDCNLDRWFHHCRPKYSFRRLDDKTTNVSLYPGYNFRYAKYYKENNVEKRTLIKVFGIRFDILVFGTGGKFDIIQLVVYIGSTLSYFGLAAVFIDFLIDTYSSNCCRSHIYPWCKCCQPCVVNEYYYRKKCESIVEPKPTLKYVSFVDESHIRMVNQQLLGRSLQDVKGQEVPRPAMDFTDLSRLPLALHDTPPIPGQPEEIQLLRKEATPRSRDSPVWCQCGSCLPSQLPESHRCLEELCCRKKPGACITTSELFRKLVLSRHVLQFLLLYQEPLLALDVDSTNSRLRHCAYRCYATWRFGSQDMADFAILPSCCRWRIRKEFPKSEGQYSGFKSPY

[3] = molecular target: T1, P2X purinoceptor 7 (Homo sapiens); test: Antagonist activity at human P2X7R expressed in human RKO cells assessed as reduction in ethidium bromide uptake at 100 uM in presence of BzATP; type: cell-based
HT-29 [4] = test: Cytotoxicity against human HT-29 cells assessed as cell growth inhibition at 50 uM after 48 to 72 hrs by MTT assay; type: functional, cell-based; conditions: time 48-72 hrs
HT-29 [5] = test: Antimigratory activity against human HT-29 cells assessed as reversal of BzATP induced cell migration at 50 uM; type: functional, cell-based
HUVEC = test: Cytotoxicity against HUVEC cells assessed as reduction in cell growth inhibition at 50 uM measured after 24 to 72 hrs by MTT assay; type: cell-based; conditions: human, time 24-72 hrs
[6] = molecular target: T2, P2X purinoceptor 7 (Mus musculus) (UniProt Q9Z1M0); test: Antagonist activity at mouse P2X7R expressed in mouse CT26 cells assessed as reduction in ethidium bromide uptake by cells at 100 uM in presence of BzATP; type: cell-based
T2 sequence (whole entry): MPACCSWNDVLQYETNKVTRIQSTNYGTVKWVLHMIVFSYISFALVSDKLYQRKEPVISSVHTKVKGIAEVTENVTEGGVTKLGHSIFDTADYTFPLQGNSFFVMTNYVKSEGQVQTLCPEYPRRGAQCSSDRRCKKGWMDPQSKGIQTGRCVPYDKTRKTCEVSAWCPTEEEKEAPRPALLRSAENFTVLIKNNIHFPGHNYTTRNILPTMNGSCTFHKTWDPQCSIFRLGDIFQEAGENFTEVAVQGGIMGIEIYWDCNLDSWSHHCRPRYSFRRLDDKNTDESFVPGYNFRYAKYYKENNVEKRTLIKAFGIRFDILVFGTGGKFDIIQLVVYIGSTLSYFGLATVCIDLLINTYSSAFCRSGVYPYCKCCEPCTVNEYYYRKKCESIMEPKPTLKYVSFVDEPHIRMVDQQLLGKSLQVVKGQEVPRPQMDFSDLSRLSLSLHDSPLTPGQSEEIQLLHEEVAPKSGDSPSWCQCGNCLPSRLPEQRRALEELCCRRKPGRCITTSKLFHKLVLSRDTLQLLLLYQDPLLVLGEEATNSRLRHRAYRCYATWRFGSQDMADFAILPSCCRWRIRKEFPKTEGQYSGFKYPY

Activity [2] | Activity [3] | Activity [6] | Compound | Activity (HT-29 [1]) | Activity (RKO) | Activity (HT-29 [4]) | Activity (HT-29 [5]) | Activity (HUVEC)
Active | inactive |  | CCOc1ccc(-n2c(=O)[nH]c3c(C(N)=O)nc(-c4cc(F)ccc4F)nc32)cc1 | Active | inactive | Active | Active | Toxic
Active | inactive | inactive | COc1ccc(CC(=O)NC(N/C(=N/C#N)Nc2cccc3ncccc23)C(C)(C)C)cc1OC (stereo not drawn) | inactive | inactive | Active |  | 

Reference: ChEMBL document CHEMBL5053513, “Discovery of bilirubin as novel P2X7R antagonist with anti-tumor activity” (Bioorg Med Chem Lett, 2021)
